The values below come from article PMC10793205, “Differential transmetallation of complexes of the anti-cancer thiosemicarbazone, Dp4e4mT: effects on anti-proliferative efficacy, redox activity, oxy-myoglobin and oxy-hemoglobin oxidation” (Chemical Science, 2023).

Where two headings read alike, the source gives them in different places.

The test system of one data set is H2DCF. In words: Redox activity: H2DCF oxidation to DCF (cell-free, L-cysteine/H2O2). It is filed as biochemical. The note with it: for DCF fluorescence (H2DCF oxidation) after addition of CuCl2: 10 μM complex + CuCl2, pH 7.4 and pH 5; for DCF fluorescence (H2DCF oxidation) of agent alone: 10 μM, pH 7.4 and pH 5, no added CuCl2. The procedure: Redox activity in cells was examined using an established in vitro method examining 2′,7′-dichlorodihydrofluorescein (H2DCF) oxidation to fluorescent 2′,7′-dichlorofluorescein (DCF) at cytosolic pH (pH 7.4 using HBSS buffer) relative to lysosomal pH (pH 5; acetate buffer; Fig. 5).[25,26,28,42,46] To these buffers containing the complexes, L-cysteine (100 μM) was added as a reducing agent, followed by H2DCF (5 μM). Then, hydrogen peroxide (H2O2; 100 μM) was added to initiate hydroxyl radical generation. Both [Cu(DpC)Cl2] and [Cu(DpC)2] were used as positive controls due to their documented redox activity.[28,42] In contrast, the ligand, DpC, was implemented as a negative control, as it is redox inert.[28,42] As an additional control, the established Cu chelator, tetrathiomolybdate (TM), was utilized to remove Cu from the thiosemicarbazone complexes to indicate its role in their redox activity.[27,28,42] Additionally, UV-vis spectroscopy (300–700 nm) of the same solution for each complex was also performed to understand both the oxidation of H2DCF and the formation of fluorescent DCF upon excitation at 503 nm (Fig. S20A–F and S21A–F ^†). […]
ROS Generation Analysis with H 2DCF-DA
The generation of reactive oxygen species (ROS) was assessed by examining the oxidation of H2DCF.2, 8, 13, 14 Solutions containing CuCl2, TM, DpC, Dp4e4mT, [Fe(DpC)2]+, [Cu(DpC)Cl2], [Cu(DpC)2] and the Dp4e4mT complexes were prepared at a concentration of 10 µM in either HBSS (pH 7.4) or 150 mM acetate buffer (pH 5) to simulate the conditions of the cytosol and lysosome, respectively.2, 8, 14, 15 The H2DCF was prepared by deacetylation of DCFH-DA (Sigma-Aldrich) through alkaline hydrolysis using NaOH. 16
In these prepared solutions, L-cysteine (100 µM) was added as a reducing agent and then H2DCF (5 µM) added. The initiation of hydroxyl radical generation was achieved by the addition of hydrogen peroxide (H2O2; 100 µM). As a comparative benchmark, HBSS or acetate buffer containing L-cysteine, H2DCF, and H2O2, but lacking ligands or metal complexes, was employed as a control. Fluorescence measurements were carried out using a CLARIOstar Plus microplate reader (BMG LABTECH, Australia) with an excitation wavelength of 485 nm and an emission wavelength of 530 nm. 8, 14

Data set [1] can be described thus: Transmetallation kinetics with Cu(OAc)2 in aqueous solution pH 7.4 / pH 5 (UV-vis). Format: physicochemical. The note with it: for Observed pseudo first order rate constant kobs, Cu(OAc)2 in water pH 5 (only or first step): 10-fold excess of Cu(OAc)2, water pH 5, 25 °C; for Observed pseudo first order rate constant kobs, Cu(OAc)2 in water pH 7.4: 10-fold excess of Cu(OAc)2, water pH 7.4, 25 °C. The protocol: Transmetallation studies were also conducted using UV-vis spectroscopy in aqueous solutions at pH 7.4 (phosphate buffer; 100 mM) and pH 5 (acetate buffer; 150 mM) to simulate physiological conditions, as thiosemicarbazones of this class transverse the cytosol (pH 7.4) to target lysosomes (pH 5), where transmetallation occurs.[25,26,28] Studies in aqueous solution were important to compare the results performed in DMSO above so as to interpret the biological studies and particularly the redox assays below where the same pH values were employed.
Transmetallation of the complexes of Dp4e4mT with Cu(OAc)2 in water was possible as it is soluble in aqueous solution at pH 7.4 and 5, while FeCl3 precipitates under these conditions and cannot be assessed. […] The UV-vis spectra of all complexes in water (ca. 10 μM solutions) are compared in Fig. S17 ^† and mirror the spectra in DMSO (see Experimental section). The spectra of [Fe(Dp4e4mT)2]^+, [Co(Dp4e4mT)2]^+, and [Pd(Dp4e4mT)Cl] are similar, and display an asymmetric maximum around 393 nm with a prominent shoulder (∼450 nm). The [Ni(Dp4e4mT)2] spectrum is similarly asymmetric, although the peak intensities are reversed relative to the Fe(III), Co(III), and Pd(II) spectra (Fig. S17 ^†). […] The spectrum of [Zn(Dp4e4mT)2] is unique in this group, with a symmetrical peak at ∼400 nm.
Table S2. Observed pseudo first order rate constants (k obs, s−1) for reactions of each Dp4e4mT complex with a 10-fold excess of Cu(OAc) 2 or FeCl 3 in DMSO or water (pH 7.4 or 5.0) at 25 °C. […]
[Co(Dp4e4mT)2]+ No reaction No reaction No reaction No reaction […]
a Reaction could not be deciphered by UV-Vis spectroscopy; bchlorido ligand hydrolysis

For data set [2] the following is noted: mice, cited from earlier work.
The subject of another data set is human tumor xenografts. The note with it: cited from earlier work; for efficacy against a lung tumor xenograft: in vivo after oral administration.

As for `CCN(C)C([S-])=NN=C(c1ccccn1)c1ccccn1.CCN(C)C([S-])=NN=C(c1ccccn1)c1ccccn1.[Co+3]` [[Co(Dp4e4mT)2]^+], the “DCF fluorescence (H2DCF oxidation) after addition of CuCl2” value (“DCF fluorescence … of CuCl2” below) with H2DCF is given as “not significantly (p > 0.05) different to CuCl2 alone”. In addition, in data set [1], the “Observed pseudo first order rate constant kobs, Cu(OAc)2 in water pH 5 (only or first step)” value is recorded as “No reaction” and the “Observed pseudo first order rate constant kobs, Cu(OAc)2 in water pH 7.4” value is reported as “No reaction”.
Regarding `CN(C)C(=S)NN=C(c1ccccn1)c1ccccn1` [Dp44mT, di-2-pyridylketone 4,4-dimethyl-3-thiosemicarbazone, reference compound], the cardiac fibrosis entry in data set [2] (intravenous, intensive non-optimal doses) was “demonstrated cardiac fibrosis”. For the same compound, the “inhibition of human tumor xenografts” value with human tumor xenografts (nude mice, 0.4 mg per kg per day) is listed as “selectively inhibited a variety of human tumor xenografts in nude mice”.
As to `CCN(C)C([S-])=NN=C(c1ccccn1)c1ccccn1.CCN(C)C([S-])=NN=C(c1ccccn1)c1ccccn1.[Ga+3]` [[Ga(Dp4e4mT)2]^+], the “DCF fluorescence … of CuCl2” value in the data set on H2DCF was “markedly and significantly (p < 0.0001–0.001) increased DCF fluorescence”. In data set [1], the “Observed pseudo first order rate constant kobs, Cu(OAc)2 in water pH 5 (only or first step)” value is listed as > 0.1 s−1 and the “Observed pseudo first order rate constant kobs, Cu(OAc)2 in water pH 7.4” value is on record as > 0.1 s−1. The “t½, spectral change without added Cu(OAc)2” value in data set [1] (aqueous pH 7.4, no Cu(OAc)2) was ~0.5 min. Besides, the kobs, spectral change without added Cu(OAc)2 in data set [1] (aqueous pH 7.4, no Cu(OAc)2, λmax shift ∼415 nm to 400 nm) was determined as 0.022 s⁻¹.
On to `CN(C(=S)NN=C(c1ccccn1)c1ccccn1)C1CCCCC1` [DpC, di-2-pyridylketone 4-cyclohexyl-4-methyl-3-thiosemicarbazone, reference compound], for which, in the data set with H2DCF, the “DCF fluorescence (H2DCF oxidation) of agent alone” value (“DCF fluorescence … of agent alone” for short) is on record as “did not significantly (p > 0.05) increase DCF fluorescence”. In data set [2], the cardiac fibrosis entry is “did not induce cardiac fibrosis in mice”. Moreover, the “efficacy against a lung tumor xenograft” value in the data set on human tumor xenografts is given as “potent efficacy against a lung tumor xenograft”.
`CCN(C)C([S-])=NN=C(c1ccccn1)c1ccccn1.CCN(C)C([S-])=NN=C(c1ccccn1)c1ccccn1.[Zn+2]` [[Zn(Dp4e4mT)2]]: the “DCF fluorescence … of CuCl2” value in the data set on H2DCF was “markedly and significantly (p < 0.0001–0.001) increased DCF fluorescence”. Besides, in data set [1], the “Observed pseudo first order rate constant kobs, Cu(OAc)2 in water pH 5 (only or first step)” value is > 0.1 s−1 and the “Observed pseudo first order rate constant kobs, Cu(OAc)2 in water pH 7.4” value is listed as > 0.1 s−1.
As for `CCN(C)C([S-])=NN=C(c1ccccn1)c1ccccn1.[Cl-].[Pd+2]` [[Pd(Dp4e4mT)Cl]], the “DCF fluorescence … of CuCl2” value in the data set with H2DCF is reported as “approximately half”.
Consider `CCN(C)C([S-])=NN=C(c1ccccn1)c1ccccn1.[Cl-].[Cu+2]` [[Cu(Dp4e4mT)Cl]], for which the “DCF fluorescence … of agent alone” value in the data set on H2DCF is “greatest efficacy at increasing DCF fluorescence”.
For the compound `CCN(C)C([S-])=NN=C(c1ccccn1)c1ccccn1.CCN(C)C([S-])=NN=C(c1ccccn1)c1ccccn1.[Fe+3]` [[Fe(Dp4e4mT)2]^+], in the data set with H2DCF, the “DCF fluorescence … of CuCl2” value is “markedly and significantly (p < 0.0001–0.001) increased DCF fluorescence”; the “DCF fluorescence … of agent alone” value is “markedly and significantly (p < 0.0001) less redox active”. Also, in data set [1] (aqueous, pH 7.4 and 5.0), the “kobs, decay of the 500 nm shoulder after Cu(OAc)2” value turned out to be 0.00073 s⁻¹ and the “t½, decay of the 500 nm shoulder after Cu(OAc)2” value is recorded as ~15 min.
Regarding `CCN(C)C([S-])=NN=C(c1ccccn1)c1ccccn1.CCN(C)C([S-])=NN=C(c1ccccn1)c1ccccn1.[Ni+2]` [[Ni(Dp4e4mT)2]], in the data set on H2DCF, the “DCF fluorescence … of CuCl2” value was “markedly and significantly (p < 0.0001–0.001) increased DCF fluorescence”. For the same compound, the “Observed pseudo first order rate constant kobs, Cu(OAc)2 in water pH 7.4” value in data set [1] was “No reaction”. In addition, the “t½, faster step with Cu(OAc)2 at pH 5” value in data set [1] (aqueous pH 5, first of two consecutive first order reactions) was ~4 min.
As to `CCN(C)C(=S)NN=C(c1ccccn1)c1ccccn1` [Dp4e4mT, di-2-pyridylketone-4-ethyl-4-methyl-3-thiosemicarbazone], the “DCF fluorescence … of agent alone” value in the data set with H2DCF is listed as “did not significantly (p > 0.05) increase DCF fluorescence”. Also, the cardiac fibrosis result in data set [2] is “did not induce cardiac fibrosis in mice”. For the same compound, the “efficacy against a lung tumor xenograft” value in the data set on human tumor xenografts is “potent efficacy against a lung tumor xenograft”.
